Source: US5304604A, “Hydroxamic acid collagenase inhibotors” (British Bio-technology Limited, priority 1988, dated 1994)

How the values were obtained:
collagenase = molecular target: T1, collagenase (Homo sapiens, UniProt P03956); assay: Collagenase Inhibition Activity (procedure of Cawston and Barrett); format: biochemical; settings: for IC50: acetylated 14C collagen, 37°, 16 hours, pH 7.5, read-out: IC50 (inhibitor concentration effecting 50% inhibition of the collagenase)
T1 sequence (P03956 100-469): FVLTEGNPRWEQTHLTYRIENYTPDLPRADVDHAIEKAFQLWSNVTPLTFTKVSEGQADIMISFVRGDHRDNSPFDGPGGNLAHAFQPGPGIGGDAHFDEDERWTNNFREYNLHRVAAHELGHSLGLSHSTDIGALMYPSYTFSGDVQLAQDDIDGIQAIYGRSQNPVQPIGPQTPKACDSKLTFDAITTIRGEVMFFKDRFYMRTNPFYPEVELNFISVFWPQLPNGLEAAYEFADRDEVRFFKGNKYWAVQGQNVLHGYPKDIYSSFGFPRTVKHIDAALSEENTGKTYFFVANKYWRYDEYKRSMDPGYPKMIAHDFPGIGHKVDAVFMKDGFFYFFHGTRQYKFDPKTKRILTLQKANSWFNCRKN

stromelysin = stromelysin (Homo sapiens, UniProt P08254); assay: Stromelysin Inhibition Activity (procedure of Cawston et al); format: biochemical; settings: for protoglycanase inhibiting activity, in words: protoglycanase = stromelysin (b7)
Chain of stromelysin (P08254 100-477): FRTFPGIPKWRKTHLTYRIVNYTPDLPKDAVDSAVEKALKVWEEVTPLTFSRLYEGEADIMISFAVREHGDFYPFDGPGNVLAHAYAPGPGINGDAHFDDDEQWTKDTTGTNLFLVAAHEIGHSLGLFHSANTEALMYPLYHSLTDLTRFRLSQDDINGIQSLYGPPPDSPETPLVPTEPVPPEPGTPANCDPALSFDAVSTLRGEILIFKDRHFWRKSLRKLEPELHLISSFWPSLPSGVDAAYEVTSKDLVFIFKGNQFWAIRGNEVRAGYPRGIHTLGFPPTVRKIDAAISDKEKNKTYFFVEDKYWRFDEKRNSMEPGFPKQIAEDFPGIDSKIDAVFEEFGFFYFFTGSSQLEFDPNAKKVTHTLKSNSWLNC
Procedure: The potency of compounds of general formula I to act as inhibitors of collagenase (a metalloprotease involved in tissue degradation) was determined by the procedure of Cawston and Barrett, (Anal. Biochem., 99, 340-345, 1979) and their potency to act as inhibitors of stromelysin was determined using the procedure of Cawston et al (Biochem. J., 195, 159-165 1981), both of which techniques are to be described more fully in the examples and, to the extent that the law allows, are incorporated by reference herein.

collagenase-inhibiting activity, in words (collagenase) | IC50 (collagenase) [nM] | protoglycanase inhibiting activity, in words (stromelysin) | IC50 (stromelysin; 14C acetylated casein, 37° C., 16 hours, pH 7.5, read-out: IC50 (inhibitor concentration effecting 50% inhibition of the stromelysin)) [nM] | SMILES
good | 20 | good |  | CC(C)C[C@H](CC(=O)NO)C(=O)N[C@@H](Cc1ccccc1)C(=O)NCc1cccnc1 [Example 6, [4-(N-Hydroxyamino)-2R-isobutylsuccinyl]-L-phenylalanine-N-(3-aminomethylpyridine)amide]
 | 70 |  |  | CC(C)C[C@H](CC(=O)NO)C(=O)N[C@@H](Cc1ccccc1)C(=O)NCCN1CCCC1 [Example 3, [4-(N-Hydroxyamino)-2R-isobutylsuccinyl]-L-phenylalanine-N-[1-(2-aminoethyl)-pyrrolidine]amide]
good | 15 | good | 50 | CC(C)C[C@@H](C(=O)N[C@@H](Cc1ccccc1)C(=O)NCCN1CCOCC1)[C@H](C)C(=O)NO [Example 11, [4-(N-Hydroxyamino)-2R-isobutyl-3S-methylsuccinyl]-L-phenylalanine-N-[4-(2-aminoethyl)-morpholino]amide]
